Measured values reported in patent US9783537B2, “3-(4-ethylnylphenyl) pyridopyrimidinone compounds and process for preparation thereof useful as potential anticancer agents” (Council of Scientific & Industrial Research, priority 2013, dated 2017).
Like-named read-outs stand apart in the source and are kept apart here.

Legend:
A498 = experiment: SRB 48 h growth assay, Renal A498; assay type: cell-based, human
HCT-15 = experiment: SRB 48 h growth assay, Colon HCT-15; assay type: cell-based, human; conditions: HCT-15, Colon
DU-145 = experiment: SRB 48 h growth assay, Prostate DU-145; assay type: cell-based, human; conditions: DU-145, Prostate
HOP-92 = experiment: SRB 48 h growth assay, Non-small Cell Lung HOP-92; assay type: cell-based, human; conditions: HOP-92, Non-small Cell Lung
OVCAR-4 = experiment: SRB 48 h growth assay, Ovarian OVCAR-4; assay type: cell-based, human; conditions: OVCAR-4, Ovarian
COLO 205 = experiment: SRB 48 h growth assay, Colon COLO 205; assay type: cell-based, human; conditions: COLO 205, Colon
[1] = system: seven colon cancer cell line (COLO 205, HCC-2998, HCT-116, HCT-15, HT29, KM12 and SW-620); experiment: in vitro anticancer activity, colon panel; assay type: cell-based; conditions: Homo sapiens; seven colon cancer cell lines, exposure at least 48 h; read-out: GI50, range over panel
RPMI-8226 = experiment: SRB 48 h growth assay, Leukemia RPMI-8226; assay type: cell-based, human; conditions: RPMI-8226, Leukemia
TK-10 = experiment: SRB 48 h growth assay, Renal TK-10; assay type: cell-based, human; conditions: TK-10, Renal
[2] = in vitro anticancer activity, melanoma panel; assay type: cell-based; conditions: Homo sapiens; nine melanoma cell lines, exposure at least 48 h; read-out: GI50, range over panel
UACC-62 = experiment: SRB 48 h growth assay, Melanoma UACC-62; assay type: cell-based, human; conditions: UACC-62, Melanoma
SF-268 = experiment: SRB 48 h growth assay, CNS SF-268; assay type: cell-based, human; conditions: SF-268, CNS
SNB-75 = experiment: SRB 48 h growth assay, CNS SNB-75; assay type: cell-based, human; conditions: SNB-75, CNS
RXF393 = experiment: SRB 48 h growth assay, Renal RXF393; assay type: cell-based, human
SF-539 = experiment: SRB 48 h growth assay, CNS SF-539; assay type: cell-based, human; conditions: SF-539, CNS
NCI-H322M = experiment: SRB 48 h growth assay, Non-small Cell Lung NCI-H322M; assay type: cell-based, human
HL-60(TB) = experiment: SRB 48 h growth assay, Leukemia HL-60(TB); assay type: cell-based, human
MDA-MB-231/ATCC = experiment: SRB 48 h growth assay, Breast MDA-MB-231/ATCC; assay type: cell-based, human
T-47D = experiment: SRB 48 h growth assay, Breast T-47D; assay type: cell-based, human
OVCAR-5 = experiment: SRB 48 h growth assay, Ovarian OVCAR-5; assay type: cell-based, human; conditions: OVCAR-5, Ovarian
MCF7 = experiment: SRB 48 h growth assay, Breast MCF7; assay type: cell-based, human
SW-620 = experiment: SRB 48 h growth assay, Colon SW-620; assay type: cell-based, human; conditions: SW-620, Colon
SK-MEL-5 = experiment: SRB 48 h growth assay, Melanoma SK-MEL-5; assay type: cell-based, human; conditions: SK-MEL-5, Melanoma
HOP-62 = experiment: SRB 48 h growth assay, Non-small Cell Lung HOP-62; assay type: cell-based, human; conditions: HOP-62, Non-small Cell Lung
KM12 = experiment: SRB 48 h growth assay, Colon KM12; assay type: cell-based, human
K-562 = experiment: SRB 48 h growth assay, Leukemia K-562; assay type: cell-based, human
[3] = Homo sapiens, read-out: Growth Inhibition GI50
[4] = Homo sapiens, read-out: Log10 GI50 (converted)
[5] = Homo sapiens, read-out: Log10 LC50 (converted)

For C#Cc1ccc(-n2c(/C=C/c3ccc(O)cc3)nc3ncccc3c2=O)cc1 [4b, (E)-3-(4-Ethynylphenyl)-2-(4-hydroxystyryl)pyrido[2,3-d]pyrimidin-4(3H)-one], the “Log10 TGI50” value (A498) was −5.16, the GI50 (A498; [3]) was 2.48 µM and the GI50 (A498; [4]) was 2.45 µM. The CC50 (A498; [5]) was > 100 µM, the “Log10 TGI50” value (HCT-15) was >−4.00 and the GI50 (HCT-15; [3]) was 4.65 µM. The GI50 (HCT-15; [4]) was 4.68 µM, the CC50 (HCT-15; [5]) was > 100 µM and the “Log10 TGI50” value (DU-145) was −4.12. The GI50 (DU-145; [3]) was 4.1 µM, the GI50 (DU-145; [4]) was 4.07 µM and the CC50 (DU-145; [5]) was > 100 µM. The “Log10 TGI50” value (HOP-92) was −4.77, the GI50 (HOP-92; [3]) was 1.8 µM and the GI50 (HOP-92; [4]) was 1.82 µM. The CC50 (HOP-92; [5]) was > 100 µM, the GI50 (OVCAR-4; [3]) was 22.8 µM and the GI50 (OVCAR-4; [4]) was 1.58 µM. The CC50 (OVCAR-4; [5]) was > 100 µM, the “Log10 TGI50” value (OVCAR-4) was >−4.00 and the “Log10 TGI50” value (COLO 205) was >−4.00. The GI50 (COLO 205; [3]) was > 100 µM, the GI50 (COLO 205; [4]) was > 100 µM and the CC50 (COLO 205; [5]) was > 100 µM. It also gave a GI50 [1] of 3.19 to 27.5 µM, a GI50 (RPMI-8226; [3]) of 3.41 µM and a GI50 (RPMI-8226; [4]) of 3.39 µM. For the same compound, the CC50 (RPMI-8226; [5]) was > 100 µM, the “Log10 TGI50” value (RPMI-8226) was >−4.00 and the GI50 (TK-10; [3]) was 8.78 µM. For the same compound, the GI50 (TK-10; [4]) was 8.71 µM, the CC50 (TK-10; [5]) was > 100 µM and the “Log10 TGI50” value (TK-10) was −4.16. For the same compound, the GI50 [2] was 1.78 to 34.6 µM, the GI50 (UACC-62; [3]) was 4.01 µM and the GI50 (UACC-62; [4]) was 3.98 µM. For the same compound, the CC50 (UACC-62; [5]) was > 100 µM, the “Log10 TGI50” value (UACC-62) was >−4.00 and the GI50 (SF-268; [3]) was 5.24 µM. For the same compound, the GI50 (SF-268; [4]) was 5.25 µM, the CC50 (SF-268; [5]) was > 100 µM and the “Log10 TGI50” value (SF-268) was −4.17. For the same compound, the GI50 (SNB-75; [3]) was 0.94 µM, the GI50 (SNB-75; [4]) was 0.955 µM and the CC50 (SNB-75; [5]) was > 100 µM. For the same compound, the “Log10 TGI50” value (SNB-75) was −4.49, the “Log10 TGI50” value (RXF393) was −5.36 and the GI50 (RXF393; Homo sapiens, RXF 393, read-out: Growth Inhibition GI50) was 1.48 µM. For the same compound, the GI50 (RXF393; Homo sapiens, RXF 393, read-out: Log10 GI50 (converted)) was 1.48 µM, the CC50 (RXF393; Homo sapiens, RXF 393, read-out: Log10 LC50 (converted)) was > 72.4 µM and the GI50 (SF-539; [3]) was 2.12 µM. The GI50 (SF-539; [4]) was 2.14 µM, the CC50 (SF-539; [5]) was > 74.1 µM and the “Log10 TGI50” value (SF-539) was −5.21. The “Log10 TGI50” value (NCI-H322M) was >−4.00, the GI50 (NCI-H322M; [3]) was 5.58 µM and the GI50 (NCI-H322M; [4]) was 5.62 µM. The CC50 (NCI-H322M; [5]) was > 100 µM, the “Log10 TGI50” value (HL-60(TB)) was −4.52 and the GI50 (HL-60(TB); [3]) was 3.2 µM. For the same compound, the GI50 (HL-60(TB); [4]) was 3.24 µM, the CC50 (HL-60(TB); [5]) was > 100 µM and the “Log10 TGI50” value (MDA-MB-231/ATCC) was >−4.00. The GI50 (MDA-MB-231/ATCC; [3]) was 11.4 µM, the GI50 (MDA-MB-231/ATCC; [4]) was 11.5 µM and the CC50 (MDA-MB-231/ATCC; [5]) was > 100 µM. For the same compound, the “Log10 TGI50” value (T-47D) was >−4.00, the GI50 (T-47D; Homo sapiens, T47D, read-out: Growth Inhibition GI50) was 4.63 µM and the GI50 (T-47D; Homo sapiens, T47D, read-out: Log10 GI50 (converted)) was 4.68 µM. The CC50 (T-47D; Homo sapiens, T47D, read-out: Log10 LC50 (converted)) was > 100 µM, the GI50 (OVCAR-5; [3]) was 32.3 µM and the GI50 (OVCAR-5; [4]) was 32.4 µM. The CC50 (OVCAR-5; [5]) was > 100 µM, the “Log10 TGI50” value (OVCAR-5) was >−4.00 and the “Log10 TGI50” value (MCF7) was >−4.00. For the same compound, the GI50 (MCF7; [3]) was 3.04 µM, the GI50 (MCF7; [4]) was 3.02 µM and the CC50 (MCF7; [5]) was > 100 µM. The GI50 (SW-620; [3]) was 3.55 µM, the GI50 (SW-620; [4]) was 3.55 µM and the CC50 (SW-620; [5]) was > 100 µM. For the same compound, the “Log10 TGI50” value (SW-620) was >−4.00, the GI50 (SK-MEL-5; [3]) was 2.24 µM and the GI50 (SK-MEL-5; [4]) was 2.24 µM. For the same compound, the CC50 (SK-MEL-5; [5]) was > 100 µM, the “Log10 TGI50” value (SK-MEL-5) was −5.13 and the “Log10 TGI50” value (HOP-62) was −4.25. For the same compound, the GI50 (HOP-62; [3]) was 5.66 µM, the GI50 (HOP-62; [4]) was 5.62 µM and the CC50 (HOP-62; [5]) was > 100 µM. The “Log10 TGI50” value (KM12) was −4.22, the GI50 (KM12; [3]) was 3.81 µM and the GI50 (KM12; [4]) was 3.8 µM. The CC50 (KM12; [5]) was > 100 µM, the GI50 (K-562; Homo sapiens, K562, K-562, Leukemia, read-out: Growth Inhibition GI50) was 4.33 µM and the GI50 (K-562; Homo sapiens, K562, K-562, Leukemia, read-out: Log10 GI50 (converted)) was 4.37 µM. For the same compound, the CC50 (K-562; Homo sapiens, K562, K-562, Leukemia, read-out: Log10 LC50 (converted)) was > 100 µM and the “Log10 TGI50” value (K-562; K-562, Leukemia) was >−4.00.
